Measurements taken from ChEMBL document CHEMBL2086246, “Synthesis and optimization of substituted furo[2,3-d]-pyrimidin-4-amines and 7H-pyrrolo[2,3-d]pyrimidin-4-amines as ACK1 inhibitors” (Bioorg Med Chem Lett, 2012).
Activity calls are given as the source filed them. The rule behind the calls is not given here.

How the values were obtained:
Activated CDC42 kinase 1 [1] = target: T1, Activated CDC42 kinase 1 (Homo sapiens, UniProt Q07912); assay: Inhibition of N-terminal His6-tagged ACK1 expressed in baculovirus infected Hi5 cells assessed as inhibition of autophosphorylation after 2 hrs by ELISA; design: species or system BTI-TN-5B1-4
Target sequence in this assay (Q07912 whole entry): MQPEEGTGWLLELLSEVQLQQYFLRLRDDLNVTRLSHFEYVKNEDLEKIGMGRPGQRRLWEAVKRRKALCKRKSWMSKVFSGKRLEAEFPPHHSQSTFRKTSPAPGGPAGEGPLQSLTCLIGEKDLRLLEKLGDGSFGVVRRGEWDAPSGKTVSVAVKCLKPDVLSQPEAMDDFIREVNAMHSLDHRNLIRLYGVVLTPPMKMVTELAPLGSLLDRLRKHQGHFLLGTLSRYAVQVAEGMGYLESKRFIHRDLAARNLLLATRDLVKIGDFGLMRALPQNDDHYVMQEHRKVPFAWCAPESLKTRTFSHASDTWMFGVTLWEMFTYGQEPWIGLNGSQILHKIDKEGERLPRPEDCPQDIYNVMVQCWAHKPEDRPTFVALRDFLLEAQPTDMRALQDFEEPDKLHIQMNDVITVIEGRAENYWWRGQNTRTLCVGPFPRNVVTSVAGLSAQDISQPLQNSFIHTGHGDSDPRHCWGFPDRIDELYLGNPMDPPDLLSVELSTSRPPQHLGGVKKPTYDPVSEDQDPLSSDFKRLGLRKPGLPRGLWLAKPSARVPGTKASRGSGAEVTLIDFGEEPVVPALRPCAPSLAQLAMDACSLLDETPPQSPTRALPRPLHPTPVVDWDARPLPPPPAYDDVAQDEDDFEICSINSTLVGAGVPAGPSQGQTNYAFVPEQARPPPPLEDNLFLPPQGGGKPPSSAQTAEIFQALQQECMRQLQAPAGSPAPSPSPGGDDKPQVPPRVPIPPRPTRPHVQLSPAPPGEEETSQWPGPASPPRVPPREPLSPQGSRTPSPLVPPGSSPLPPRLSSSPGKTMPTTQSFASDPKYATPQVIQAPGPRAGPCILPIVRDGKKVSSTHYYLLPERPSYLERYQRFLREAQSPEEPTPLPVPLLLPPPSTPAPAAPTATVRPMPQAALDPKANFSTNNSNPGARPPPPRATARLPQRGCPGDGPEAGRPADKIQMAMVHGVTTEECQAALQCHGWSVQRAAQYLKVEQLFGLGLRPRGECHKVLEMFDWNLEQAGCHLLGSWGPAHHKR

Activated CDC42 kinase 1 [2] = target: Activated CDC42 kinase 1 (Mus musculus, UniProt O54967); assay: Inhibition of ACK1 in mouse C8 cells assessed as decrease in cell viability after 20 to 24 hrs; type: cell-based
Activated CDC42 kinase 1 [3] = target: T1, Activated CDC42 kinase 1; assay: Inhibition of ACK1
Target sequence in this assay (Q07912 whole entry): as above

Activated CDC42 kinase 1 [4] = target: T1, Activated CDC42 kinase 1; assay: Reversible inhibition of ACK1
Target sequence in this assay (Q07912 whole entry, looked up): as the sequence (Q07912 whole entry) above

Activated CDC42 kinase 1 [5] = target: T1, Activated CDC42 kinase 1; assay: Competitive inhibition of ACK1 using ATP
Target sequence in this assay (Q07912 whole entry, looked up): as the sequence (Q07912 whole entry) above

[6] = Clearance in Sprague-Dawley rat at 1 mg/kg, iv; type: ADME, organism-based; design: dose 1 mg/kg, route intravenous; details: in vivo
[7] = target: Vascular endothelial growth factor receptor 2 (Homo sapiens, UniProt P35968); assay: Inhibition of KDR
Sequence of Vascular endothelial growth factor receptor 2 (P35968 whole entry): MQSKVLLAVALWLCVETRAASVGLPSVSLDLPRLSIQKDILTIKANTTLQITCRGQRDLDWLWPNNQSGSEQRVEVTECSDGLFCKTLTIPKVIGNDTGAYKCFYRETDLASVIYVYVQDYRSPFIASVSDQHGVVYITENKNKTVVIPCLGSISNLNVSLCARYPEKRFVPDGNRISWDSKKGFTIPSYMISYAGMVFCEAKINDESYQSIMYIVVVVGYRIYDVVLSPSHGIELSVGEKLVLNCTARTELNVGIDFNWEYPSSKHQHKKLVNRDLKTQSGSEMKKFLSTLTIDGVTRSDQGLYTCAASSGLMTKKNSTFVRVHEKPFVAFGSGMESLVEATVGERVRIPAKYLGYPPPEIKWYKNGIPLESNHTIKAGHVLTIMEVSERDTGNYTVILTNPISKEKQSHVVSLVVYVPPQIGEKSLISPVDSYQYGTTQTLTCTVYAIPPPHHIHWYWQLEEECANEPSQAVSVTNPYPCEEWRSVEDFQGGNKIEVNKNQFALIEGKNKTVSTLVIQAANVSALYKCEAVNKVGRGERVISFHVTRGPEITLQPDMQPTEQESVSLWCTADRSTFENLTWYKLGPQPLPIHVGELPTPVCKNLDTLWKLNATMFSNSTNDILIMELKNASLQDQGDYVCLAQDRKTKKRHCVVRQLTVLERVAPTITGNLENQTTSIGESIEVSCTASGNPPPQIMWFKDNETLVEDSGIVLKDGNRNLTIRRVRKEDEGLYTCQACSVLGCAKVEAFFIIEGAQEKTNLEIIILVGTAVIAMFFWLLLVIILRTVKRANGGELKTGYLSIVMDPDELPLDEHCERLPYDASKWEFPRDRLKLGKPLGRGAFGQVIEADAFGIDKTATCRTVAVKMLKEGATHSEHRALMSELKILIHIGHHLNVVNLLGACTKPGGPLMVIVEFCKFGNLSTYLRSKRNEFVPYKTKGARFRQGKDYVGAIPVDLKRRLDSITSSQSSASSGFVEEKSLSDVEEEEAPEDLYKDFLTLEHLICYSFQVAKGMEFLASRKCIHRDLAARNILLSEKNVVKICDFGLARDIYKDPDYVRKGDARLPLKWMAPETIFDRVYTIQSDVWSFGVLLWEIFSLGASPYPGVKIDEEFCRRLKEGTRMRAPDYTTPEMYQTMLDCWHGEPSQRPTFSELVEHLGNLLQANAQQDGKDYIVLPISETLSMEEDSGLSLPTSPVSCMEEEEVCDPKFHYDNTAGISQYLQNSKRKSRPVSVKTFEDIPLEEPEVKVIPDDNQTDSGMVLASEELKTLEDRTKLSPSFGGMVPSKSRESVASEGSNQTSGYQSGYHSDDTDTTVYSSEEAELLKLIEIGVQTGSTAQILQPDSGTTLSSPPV

[8] = Volume of distribution at steady state in Sprague-Dawley rat at 1 mg/kg, iv; type: ADME, organism-based; design: dose 1 mg/kg, route intravenous; details: in vivo, read-out: Vdss
[9] = target: T2, Tyrosine-protein kinase JAK3 (Homo sapiens, UniProt P52333); assay: Inhibition of JAK3
T2 sequence (P52333 whole entry): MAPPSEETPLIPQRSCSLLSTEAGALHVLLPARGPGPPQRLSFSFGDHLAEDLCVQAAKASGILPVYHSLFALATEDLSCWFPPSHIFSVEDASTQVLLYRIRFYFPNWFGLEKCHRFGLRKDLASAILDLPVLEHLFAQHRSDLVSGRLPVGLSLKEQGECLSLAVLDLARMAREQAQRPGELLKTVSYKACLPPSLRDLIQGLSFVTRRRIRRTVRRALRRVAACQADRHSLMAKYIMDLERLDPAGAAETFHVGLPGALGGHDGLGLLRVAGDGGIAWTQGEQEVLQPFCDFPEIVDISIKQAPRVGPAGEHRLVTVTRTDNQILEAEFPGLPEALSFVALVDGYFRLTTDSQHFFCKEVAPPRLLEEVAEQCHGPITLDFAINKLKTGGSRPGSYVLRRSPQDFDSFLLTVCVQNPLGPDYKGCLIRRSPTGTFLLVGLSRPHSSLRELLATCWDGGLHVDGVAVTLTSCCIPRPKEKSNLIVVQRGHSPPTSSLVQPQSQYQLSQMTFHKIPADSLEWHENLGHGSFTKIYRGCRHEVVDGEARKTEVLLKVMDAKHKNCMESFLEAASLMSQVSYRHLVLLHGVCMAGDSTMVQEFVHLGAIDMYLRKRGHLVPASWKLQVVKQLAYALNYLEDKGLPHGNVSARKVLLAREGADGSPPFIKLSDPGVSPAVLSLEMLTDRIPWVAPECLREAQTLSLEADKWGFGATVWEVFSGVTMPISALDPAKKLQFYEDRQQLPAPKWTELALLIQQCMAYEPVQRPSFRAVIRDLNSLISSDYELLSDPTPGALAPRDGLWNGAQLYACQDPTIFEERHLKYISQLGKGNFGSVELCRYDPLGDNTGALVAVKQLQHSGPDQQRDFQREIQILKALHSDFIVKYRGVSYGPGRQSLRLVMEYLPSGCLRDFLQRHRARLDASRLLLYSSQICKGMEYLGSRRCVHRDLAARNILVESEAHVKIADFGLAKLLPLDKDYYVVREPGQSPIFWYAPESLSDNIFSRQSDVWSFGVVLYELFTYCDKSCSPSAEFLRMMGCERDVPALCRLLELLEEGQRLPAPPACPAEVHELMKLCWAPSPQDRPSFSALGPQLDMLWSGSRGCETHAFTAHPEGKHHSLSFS

[10] = target: Tyrosine-protein kinase Lck (Homo sapiens, UniProt P06239); assay: Inhibition of LCK
Sequence of Tyrosine-protein kinase Lck (P06239 whole entry): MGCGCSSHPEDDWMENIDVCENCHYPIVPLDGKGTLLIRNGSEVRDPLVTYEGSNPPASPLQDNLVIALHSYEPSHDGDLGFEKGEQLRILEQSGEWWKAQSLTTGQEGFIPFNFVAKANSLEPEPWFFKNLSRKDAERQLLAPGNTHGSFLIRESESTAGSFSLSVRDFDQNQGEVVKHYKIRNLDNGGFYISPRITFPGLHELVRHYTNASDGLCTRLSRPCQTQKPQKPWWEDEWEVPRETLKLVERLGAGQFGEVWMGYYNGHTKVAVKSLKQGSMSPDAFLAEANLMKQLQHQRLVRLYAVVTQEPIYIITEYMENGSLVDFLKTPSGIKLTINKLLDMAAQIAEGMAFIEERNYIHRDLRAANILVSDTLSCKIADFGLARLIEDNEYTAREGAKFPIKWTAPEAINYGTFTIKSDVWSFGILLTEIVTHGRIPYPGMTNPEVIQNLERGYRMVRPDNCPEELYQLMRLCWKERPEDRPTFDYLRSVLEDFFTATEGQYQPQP

Angiopoietin-1 receptor = Angiopoietin-1 receptor (Homo sapiens, UniProt Q02763); assay: Inhibition of TIE2
Sequence of Angiopoietin-1 receptor (Q02763 whole entry): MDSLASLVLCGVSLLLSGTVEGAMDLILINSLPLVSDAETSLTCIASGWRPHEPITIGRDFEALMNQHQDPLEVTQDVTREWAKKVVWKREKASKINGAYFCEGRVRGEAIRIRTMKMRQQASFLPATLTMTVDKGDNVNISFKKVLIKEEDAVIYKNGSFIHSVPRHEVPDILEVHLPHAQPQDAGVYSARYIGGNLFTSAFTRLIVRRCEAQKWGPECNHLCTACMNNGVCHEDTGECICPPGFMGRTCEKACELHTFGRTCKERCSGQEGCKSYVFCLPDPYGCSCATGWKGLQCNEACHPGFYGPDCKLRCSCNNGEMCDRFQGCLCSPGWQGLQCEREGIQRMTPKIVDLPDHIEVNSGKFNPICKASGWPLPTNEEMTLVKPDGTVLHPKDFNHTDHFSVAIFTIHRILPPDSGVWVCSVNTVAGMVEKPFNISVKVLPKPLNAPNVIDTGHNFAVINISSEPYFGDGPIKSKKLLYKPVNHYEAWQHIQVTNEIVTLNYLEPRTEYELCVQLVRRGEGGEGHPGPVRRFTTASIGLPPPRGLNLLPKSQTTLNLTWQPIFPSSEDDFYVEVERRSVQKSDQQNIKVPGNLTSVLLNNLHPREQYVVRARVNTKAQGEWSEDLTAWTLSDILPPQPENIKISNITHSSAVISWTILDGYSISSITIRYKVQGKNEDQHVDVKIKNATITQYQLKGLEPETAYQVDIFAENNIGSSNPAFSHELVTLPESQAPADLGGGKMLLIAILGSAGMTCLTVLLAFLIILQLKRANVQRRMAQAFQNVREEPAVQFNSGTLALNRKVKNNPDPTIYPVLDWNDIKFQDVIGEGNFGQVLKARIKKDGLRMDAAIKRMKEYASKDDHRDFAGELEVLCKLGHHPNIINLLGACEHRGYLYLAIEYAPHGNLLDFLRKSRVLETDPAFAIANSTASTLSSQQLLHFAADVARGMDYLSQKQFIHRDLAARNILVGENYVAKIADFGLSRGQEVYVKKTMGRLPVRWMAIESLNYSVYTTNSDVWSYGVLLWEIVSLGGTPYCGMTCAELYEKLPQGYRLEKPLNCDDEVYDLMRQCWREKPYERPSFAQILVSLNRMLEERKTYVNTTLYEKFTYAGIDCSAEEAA

[11] = Mean residence time in Sprague-Dawley rat at 1 mg/kg, iv; type: ADME, organism-based; design: dose 1 mg/kg, route intravenous; details: in vivo
[12] = Drug metabolism in rat liver S9 fraction assessed as dithiolane ring oxidation; type: ADME, subcellular
[13] = Drug metabolism in rat liver S9 fraction assessed as dimethylamino oxidation; type: ADME, subcellular

Structure (SMILES) | Ki (Activated CDC42 kinase 1 [1]) [nM] | other results
O=C(c1ccc(-c2[nH]c3ncnc(NC[C@@H]4CCCO4)c3c2-c2ccccc2)cc1)N1CCOCC1 | 6 | 
CN(C)CCOc1ccc(-c2oc3ncnc(NC[C@@H]4CCCO4)c3c2-c2ccccc2)cc1 | 5 | 
CN(C)CCOc1ccc(-c2[nH]c3ncnc(NC[C@@H]4CCCO4)c3c2-c2ccccc2)cc1 | 6 | 
CN(C)C(=O)c1ccc(-c2oc3ncnc(NC[C@@H]4CCCO4)c3c2-c2ccccc2)cc1 | 10 | 
O=C1CCCN1CCOc1ccc(-c2[nH]c3ncnc(NC[C@@H]4CCCO4)c3c2-c2ccccc2)cc1 | 4 | 
c1cncc(-c2c(-c3ccc(OCCN4CCCC4)cc3)[nH]c3ncnc(NC[C@@H]4CCCO4)c23)c1 | 40 | 
CN(C)CCOc1ccc(-c2[nH]c3ncnc(NC[C@@H]4CCCO4)c3c2C2CC2)cc1 | 1980 | IC50 (Activated CDC42 kinase 1 [2]): Not Active
CN(C)CCOc1ccc(-c2oc3ncnc(NCC4SCCCS4)c3c2-c2ccccc2)cc1 | 4 | 
CN(C)CCOc1ccc(-c2[nH]c3ncnc(NC[C@@H]4CCCO4)c3c2C2=CCCCC2)cc1 | 10 | 
COc1ccc(-c2[nH]c3ncnc(NC[C@@H]4CCCO4)c3c2-c2ccccc2)cc1 | 6 | 
Nc1ncnc2oc(-c3ccccc3)c(-c3ccccc3)c12 |  | Ki (Activated CDC42 kinase 1 [3]): 1000 nM; inhibition (Activated CDC42 kinase 1 [4]): Active; inhibition (Activated CDC42 kinase 1 [5]): Active
CN(C)S(=O)(=O)c1ccc(-c2[nH]c3ncnc(NC[C@@H]4CCCO4)c3c2-c2ccccc2)cc1 | 2 | 
CNS(=O)(=O)c1ccc(-c2[nH]c3ncnc(NC[C@@H]4CCCO4)c3c2-c2ccccc2)cc1 | 2 | 
c1ccc(-c2oc3nccc(NC[C@@H]4CCCO4)c3c2-c2ccccc2)cc1 | 70 | 
c1ccc(-c2c(-c3ccc(OCCN4CCOCC4)cc3)oc3ncnc(NC[C@@H]4CCCO4)c23)cc1 | 4 | 
CN(C)CCOc1ccc(-c2oc3ncnc(NCC4OCCO4)c3c2-c2ccccc2)cc1 | 13 | 
O=C1CCCN1CCOc1ccc(-c2oc3ncnc(NC[C@@H]4CCCO4)c3c2-c2ccccc2)cc1 | 4 | 
CN(C)CCOc1ccc(-c2[nH]c3ncnc(NC[C@@H]4CC[C@H]4O)c3c2-c2ccccc2)cc1 (racemic) | 30 | 
c1ccc(-c2c(-c3ccc(OCCN4CCCC4)cc3)[nH]c3ncnc(NCC4SCCS4)c23)cc1 | 0.3 | clearance [6]: 113 mL/min/kg; Ki [7]: 380 nM; Vd [8]: 15.6 L/kg; Ki [9]: 6.5 nM; Ki [10]: 138 nM; Ki (Angiopoietin-1 receptor): 200 nM; MRT [11]: 2.3 h
CO[C@@H]1CCC[C@H]1CNc1ncnc2[nH]c(-c3ccc(OCCN(C)C)cc3)c(-c3ccccc3)c12 | 50 | 
CS(=O)(=O)c1ccc(-c2oc3ncnc(NC[C@@H]4CCCO4)c3c2-c2ccccc2)cc1 | 8 | 
CO[C@@H]1CC[C@H]1CNc1ncnc2[nH]c(-c3ccc(OCCN(C)C)cc3)c(-c3ccccc3)c12 (racemic) | 20 | 

Structure (SMILES) | Ki (Activated CDC42 kinase 1 [1]) [nM] | other results
Fc1ccccc1-c1c(-c2ccc(OCCN3CCCC3)cc2)[nH]c2ncnc(NC[C@@H]3CCCO3)c12 | 4 | 
CN(C)CCOc1ccc(-c2[nH]c3ncnc(NCC4SCCS4)c3c2-c2ccccc2)cc1 |  | clearance [6]: 125 mL/min/kg; Vd [8]: 26.6 L/kg; Drug metabolism [12]: Active; Drug metabolism [13]: Active; MRT [11]: 3.6 h
c1ccc(-c2c(-c3ccc(OCCN4CCCC4)cc3)[nH]c3ncnc(NC[C@@H]4CCCO4)c23)cc1 | 6 | 
COc1cccc(-c2c(-c3ccc(OCCN4CCCC4)cc3)[nH]c3ncnc(NC[C@@H]4CCCO4)c23)c1 | 10 | 
CN(C)CCOc1ccc(-c2oc3ncnc(NCC4SCCS4)c3c2-c2ccccc2)cc1 | 0.2 | 
CNC(=O)c1ccc(-c2oc3ncnc(NC[C@@H]4CCCO4)c3c2-c2ccccc2)cc1 | 13 | 
COc1ccc(-c2oc3ncnc(NC[C@@H]4CCCO4)c3c2-c2ccccc2)cc1 | 5 | 
CN(C)CCOc1ccc(-c2[nH]c3ncnc(NC[C@@H]4CCCO4)c3c2C2=CCCC2)cc1 | 20 | 
O=C(c1ccc(-c2oc3ncnc(NC[C@@H]4CCCO4)c3c2-c2ccccc2)cc1)N1CCOCC1 | 6 | 
CN(C)CCOc1ccc(-c2oc3ncnc(NC[C@@H]4CCCCS4)c3c2-c2ccccc2)cc1 | 69 | 
CO[C@@H]1CCC[C@@H]1CNc1ncnc2[nH]c(-c3ccc(OCCN(C)C)cc3)c(-c3ccccc3)c12 | 50 | 
c1ccc(-c2nc3ncnc(NC[C@@H]4CCCO4)c3n2-c2ccccc2)cc1 | 7300 | 
CS(=O)(=O)c1ccc(-c2[nH]c3ncnc(NC[C@@H]4CCCO4)c3c2-c2ccccc2)cc1 | 7 | 
CNC(=O)c1ccc(-c2[nH]c3ncnc(NC[C@@H]4CCCO4)c3c2-c2ccccc2)cc1 | 3 | 
c1ccc(-c2sc3ncnc(NC[C@@H]4CCCO4)c3c2-c2ccccc2)cc1 | > 10000 | 
CN(C)C(=O)c1ccc(-c2[nH]c3ncnc(NC[C@@H]4CCCO4)c3c2-c2ccccc2)cc1 | 2 | 
Cc1ccccc1-c1c(-c2ccc(OCCN3CCCC3)cc2)[nH]c2ncnc(NC[C@@H]3CCCO3)c12 | 20 | 
CN(C)CCOc1ccc(-c2oc3ncnc(NCC4CCCS4)c3c2-c2ccccc2)cc1 (racemic) | 8 | 
c1ccc(-c2[nH]c3ncnc(NC[C@@H]4CCCO4)c3c2-c2ccccc2)cc1 | 6 | 
c1ccc(-c2nc3ncnc(NC[C@@H]4CCCO4)n3c2-c2ccccc2)cc1 | 1800 | 
CNS(=O)(=O)c1ccc(-c2oc3ncnc(NC[C@@H]4CCCO4)c3c2-c2ccccc2)cc1 | 4 | 
c1ccc(-c2c(-c3ccc(OCCN4CCOCC4)cc3)[nH]c3ncnc(NC[C@@H]4CCCO4)c23)cc1 | 6 | 
